Laboratory results taken from article PMC4432651, “Dynamic interplay between catalytic and lectin domains of GalNAc-transferases modulates protein O-glycosylation” (Nature Communications, 2015).
Where a SMILES comes first, the peptide text is derived from it. The star is where a group is joined. αGalNAc = CC(=O)N[C@@H]1[C@@H](O)[C@@H](O)[C@@H](CO)O[C@@H]1*

Tests used:
GalNAc-T2 [1] = target: T1, GalNAc-T2 (Homo sapiens, UniProt Q10471); test: SAXS with Ensemble Optimization Method: GalNAc-T2 conformations/oligomers with ligands; details: for Rg from p(r) (GNOM) / Dmax / Rg (Guinier): GalNAc-T2 5 mg/ml, 25 mM TRIS pH 7.5, 10 mM MnCl2, 10 °C; for Dmax: maximum intramolecular distance, GNOM; on Dmax: values in Å; on Rg (Guinier): values in Å; on Rg from p(r) (GNOM): values in Å
T1 construct: made in house
T1 sequence (Q10471 75-571 limits assumed): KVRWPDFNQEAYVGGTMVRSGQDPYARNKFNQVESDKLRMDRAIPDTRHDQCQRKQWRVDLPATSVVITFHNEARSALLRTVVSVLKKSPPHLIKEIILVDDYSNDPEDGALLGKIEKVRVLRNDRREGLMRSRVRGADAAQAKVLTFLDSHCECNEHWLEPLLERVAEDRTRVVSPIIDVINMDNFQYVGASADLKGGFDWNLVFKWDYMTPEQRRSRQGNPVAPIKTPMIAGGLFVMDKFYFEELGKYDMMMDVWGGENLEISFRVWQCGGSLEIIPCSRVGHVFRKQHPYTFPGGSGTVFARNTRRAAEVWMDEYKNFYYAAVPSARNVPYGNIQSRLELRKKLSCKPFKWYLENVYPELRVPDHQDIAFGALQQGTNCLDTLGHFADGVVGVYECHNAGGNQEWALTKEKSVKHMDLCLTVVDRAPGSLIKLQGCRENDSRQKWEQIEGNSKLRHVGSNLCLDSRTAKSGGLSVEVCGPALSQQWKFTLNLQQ
Procedure: SAXS measurements were performed at the European Molecular Biology Laboratory on the storage ring PETRA-III (DESY-Hamburg) on the P12 beamline equipped with a robotic sample changer and a PILATUS-2M. The analysis of the SAXS data was performed by using the EOM[31]. Additional details are in Supplementary Methods. […]
Small-angle X-ray scattering (SAXS) and data analysis
All experiments were performed in a buffer consisting of 25 mM TRIS pH 7.5, 10 mM MnCl2. The first set of experiments contained three different protein concentrations: 10 mg/ml (180 µM), 5 mg/ml (90 µM), 2.5 mg/ml (45 µM) and 1 […]
mg/ml (18 µM). The protein was measured alone and in the presence of ten times molar excess of UDP, UDP-GalNAc, UDP-EA2 peptide, MUC5AC-13, UDP-MUC5AC-13, MUC5AC, and UDP-MUC5AC. The second set of experiments was carried out with the protein concentration fixed at 5 mg/ml, and increasing concentrations of UDP (450 µM, 900 µM, 1.8 mM, 4.5 mM and 9 mM). The concentration of MUC5AC-13 was also changed as follows: 1 mM, 5 mM and 7.5 […]
Synchrotron SAXS measurements were performed at the European Molecular
Biology Laboratory (EMBL) on the storage ring PETRA-III (DESY-Hamburg) on the P12 beamline equipped with a robotic sample changer and a PILATUS-2M. The sample-detector distance was 3.1 m. The scattering intensity, I(s), was recorded at 10 °C in a momentum transfer range of 0.007<s<0.444 Å -1, where s = (4πsinθ )/λ , 2θ is the scattering angle, and λ = 1.24 Å is the X-ray wavelength. Twenty consecutive 0.05 second measurements were performed for protein samples and buffers to monitor for radiation damage that were subsequently averaged (no systematic radiation effects were observed). Buffer scattering profiles were subtracted from the sample ones using standard procedures 8. The values of the forward scattering, I(0), and radii of gyration, Rg, were calculated from the experimental SAXS patterns using Guinier’s approximation (Supplementary Fig. 4 and 5), I(s) = I(0)exp(-s2Rg2/3), which is valid in the range sRg < 1.3.
Structural analysis of the SAXS data was performed using the Ensemble Optimization Method (EOM)9. A pool of 10,000 monomeric structures of GalNac-T2 was constructed with the program RanCh9 by connecting three-dimensional structures of the catalytic and the lectin domains, extracted from the crystallographic structure 2FFU, with a flexible linker of 12 residues with random coil conformations. To […]
properly describe the data, these monomeric ensembles were enriched with 100 equivalent curves corresponding to one dimeric arrangement. As we tested three dimers, we built three different ensembles with the same 10,000 monomeric conformations and 100 copies of each one of the dimers. The three different dimers used for SAXS are shown in Supplementary Fig. 3c and correspond to three different crystal structures obtained under different conditions.
The scattering profiles of all members of the pool were computed with the program CRYSOL using standard parameters10. The pool of structures/profiles was submitted to the genetic algorithm (GA) with the aim to select a subensemble of 50 structures/curves with the capacity to collectively describe the experimental SAXS […]
was repeated 200 times starting from different randomly selected subensembles, and the resulting solutions were analysed together. The same pool was used to describe all the measured data. Results were quantitatively analysed by displaying the Rg distributions of the selected ensembles and the relative population of monomeric and dimeric species.
Three different dimeric arrangements were introduced individually in the pool. In all three cases the dimers display similar contacts between the lectin domains and the lectin domain of one monomer with the catalytic domain of a second monomer (Supplementary Fig. 3c). We can distinguish the crystallographic dimers by the buried area parameter inferred from the PISA server. The dimers present in the crystal structure of GalNAc-T2-UDP complex (PDB entry 2FFV) are the most compact ones […]

GalNAc-T2 [2] = target: T1, GalNAc-T2; test: X-ray crystal structures of GalNAc-T2 complexes; format: binding; on Rg of crystal complex: values in Å
Procedure: In all cases, crystals were grown by hanging drop vapour diffusion at 18 °C. […] The protein solution consisting of 3.5 mg ml^−1 of GalNAcT-2, 5 mM UDP, 5 mM MnCl2 and 6 mM MUC5AC-13 in the same buffer described above was mixed with the precipitant solution containing 1.6 M ammonium sulfate, 100 mM sodium chloride and 100 mM HEPES (pH 7). The crystals were cryoprotected in saturated lithium sulfate and frozen in a nitrogen gas stream cooled to 100 K.
All data were processed and scaled using the XDS package[34] and CCP4 software. The crystal structures were solved by molecular replacement with Phaser[35] and using the PDB entry 4D0T as the template. Initial phases were further improved by cycles of manual model building in Coot[36] and refinement with REFMAC5 (ref. [37]). The AUs of the tetragonal crystals contain 1 molecule of GalNAc-T2 (Fig. 1). Coordinates and structure factors have been deposited in the Worldwide Protein Data Bank (wwPDB, and see Table 1 for the pdb codes).

GalNAc-T2 [3] = target: T1, GalNAc-T2; details: cited from earlier work
Description: Among other conclusions it was reported that the glycosylation ...

[4] = ligand molar ratio GalNAc-T2:ligand 1:10
[5] = ligand molar ratio GalNAc-T2:ligand 1:20

Compound	effect on GalNAc-T2 dimers (in words) (GalNAc-T2 [1]; GalNAc-T2 fixed at 5 mg ml−1, increasing concentrations of peptide)	Rg from p(r) (GNOM) (GalNAc-T2 [1]; ligand molar ratio 1:10) [Å]	Dmax (GalNAc-T2 [1]; ligand molar ratio 1:10) [Å]	Rg from p(r) (GNOM) (GalNAc-T2 [1]; ligand molar ratio 1:20) [Å]	Dmax (GalNAc-T2 [1]; ligand molar ratio 1:20) [Å]	Rg (Guinier) (GalNAc-T2 [1]; [4]) [Å]	Rg (Guinier) (GalNAc-T2 [1]; [5]) [Å]	Rg (Guinier) (GalNAc-T2 [1]; peptide + UDP (1:10)) [Å]	Rg from p(r) (GNOM) (GalNAc-T2 [1]; peptide + UDP (1:10)) [Å]	Dmax (GalNAc-T2 [1]; peptide + UDP (1:10)) [Å]	Rg of crystal complex (GalNAc-T2 [2]; GalNAc-T2-UDP-MUC5AC-13 complex) [Å]	form of GalNAc-T2 bound in crystal (GalNAc-T2 [2]; co-crystallization with UDP and Mn+2, flexible loop conformation)	optimal glycosylation site (GalNAc-T2 [3]; prior glycosylated site Thr13, ref 1 (supplement))	glycosylation of further sites Ser5 and Thr9 (GalNAc-T2 [3]; ref 1 (supplement))	Rg from p(r) (GNOM) (GalNAc-T2 [1]; ligand molar ratio 1:5) [Å]	Dmax (GalNAc-T2 [1]; ligand molar ratio 1:5) [Å]	Rg from p(r) (GNOM) (GalNAc-T2 [1]; ligand molar ratio 1:50) [Å]	Dmax (GalNAc-T2 [1]; ligand molar ratio 1:50) [Å]	Rg (Guinier) (GalNAc-T2 [1]; ligand molar ratio GalNAc-T2:ligand 1:5) [Å]	Rg (Guinier) (GalNAc-T2 [1]; ligand molar ratio GalNAc-T2:ligand 1:50) [Å]
CC(=O)NCC(=O)N[C@H](C(=O)N[C@H](C(=O)N1CCC[C@H]1C(=O)N[C@@H](CO)C(=O)N1CCC[C@H]1C(=O)N[C@H](C(=O)N1CCC[C@H]1C(=O)N[C@H](C(=O)N[C@H](C(=O)N[C@@H](CO)C(=O)N[C@H](C(=O)N[C@H](C(=O)N[C@@H](CO)C(=O)N[C@@H](C)C(N)=O)[C@@H](C)O[C@H]1O[C@H](CO)[C@H](O)[C@H](O)[C@H]1NC(C)=O)[C@@H](C)O)[C@@H](C)O)[C@@H](C)O)C(C)C)[C@@H](C)O)[C@@H](C)O [MUC5AC-13] (Ac-GTTPSPVPTTSTT(αGalNAc)SA-NH2; N-terminus assumed)	dimers almost disappear from solution	30.6	112	29.2	102	30.2±0.2	29.1±0.1	30.7±0.4	31.7	112	26.41	bound to an active form of GalNAc-T2	optimally 10 residues N-terminal (Thr3)	not in an efficient manner	–	–	–	–	–	–
O=c1ccn([C@@H]2O[C@H](COP(=O)(O)OP(=O)(O)O)[C@@H](O)[C@H]2O)c(=O)[nH]1 [UDP, uridine diphosphate, reference compound]	–	35.0	123	34.5	122	34.4±0.3	34.0±0.2	–	–	–	–	–	–	–	34.3	121	36.0	129	32.7±0.3	36.0±0.3
